In PubChem BioAssay AID1963871 (Molecular Pharmacology Branch, DTP, NCI, 2024):
pIC50: −log10 of the molar value.

Tested on: KRAS-mutant PDC multicell tumor spheroid viability
Assay: Anticancer human tumor 521955-158-R2-J5-PDC patient-derived pancreatic carcinoma cell line growth inhibition [KRAS2]
Settings: for pIC50: curve of first compound; for viability, T/C: stronger effect = lower value
Procedure, shortened: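 KRAS-mutant tumor cells were grown as spheroids with HUVEC endothelial cells and human MSCs as stroma. Targeted agents were tested alone and with KRAS pathway inhibitors. Doses started at or near clinical Cmax, or 10 microM, descending half-log.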

[1] = second compound 0.1 µM, first compound 0.0316 µM
[2] = second compound 0.316 µM, first compound 0.0316 µM
[3] = second compound 1 µM, first compound 0.0316 µM
[4] = second compound 3.16 µM, first compound 0.0316 µM
[5] = second compound 10 µM, first compound 0.0316 µM
[6] = second compound 0.1 µM, first compound 0.1 µM
[7] = second compound 0.1 µM, first compound 0.316 µM
[8] = second compound 0.1 µM, first compound 1 µM
[9] = second compound 0.1 µM, first compound 3.16 µM
[10] = second compound 0.1 µM, first compound 10 µM
[11] = second compound 0.316 µM, first compound 0.1 µM
[12] = second compound 0.316 µM, first compound 0.316 µM
[13] = second compound 0.316 µM, first compound 1 µM
[14] = second compound 0.316 µM, first compound 3.16 µM
[15] = second compound 0.316 µM, first compound 10 µM
[16] = second compound 1 µM, first compound 0.1 µM
[17] = second compound 1 µM, first compound 0.316 µM
[18] = second compound 1 µM, first compound 1 µM
[19] = second compound 1 µM, first compound 3.16 µM
[20] = second compound 1 µM, first compound 10 µM
[21] = second compound 3.16 µM, first compound 0.1 µM
[22] = second compound 3.16 µM, first compound 0.316 µM
[23] = second compound 3.16 µM, first compound 1 µM
[24] = second compound 3.16 µM, first compound 3.16 µM
[25] = second compound 3.16 µM, first compound 10 µM
[26] = second compound 10 µM, first compound 0.1 µM
[27] = second compound 10 µM, first compound 0.316 µM
[28] = second compound 10 µM, first compound 1 µM
[29] = second compound 10 µM, first compound 3.16 µM
[30] = second compound 10 µM, first compound 10 µM
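Note: viability read after seven days of drug exposure.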

CC(=O)Nc1cccc(-n2c(=O)n(C3CC3)c(=O)c3c(Nc4ccc(I)cc4F)n(C)c(=O)c(C)c32)c1 + COc1cc2nc(C)nc(NC(C)c3cc(N)cc(C(F)(F)F)c3)c2cc1OC1CCOC1
pIC50 (second compound 0.1 µM): 9.59 | pIC50 (second compound 0.316 µM): 9.68 | pIC50 (second compound 1 µM): 9.67 | pIC50 (second compound 3.16 µM): 9.59 | pIC50 (second compound 10 µM): > 10.00 | viability, T/C (second compound 0.1 µM, first compound 0.0001 µM): 68.5% | viability, T/C (second compound 0.1 µM, first compound 0.000316 µM): 48% | viability, T/C (second compound 0.1 µM, first compound 0.001 µM): 26.1% | viability, T/C (second compound 0.1 µM, first compound 0.00316 µM): 26.2% | viability, T/C (second compound 0.1 µM, first compound 0.01 µM): 16.3% | viability, T/C [1]: 12.7% | viability, T/C (second compound 0.316 µM, first compound 0.0001 µM): 58.5% | viability, T/C (second compound 0.316 µM, first compound 0.000316 µM): 46.4% | viability, T/C (second compound 0.316 µM, first compound 0.001 µM): 30.6% | viability, T/C (second compound 0.316 µM, first compound 0.00316 µM): 24.8% | viability, T/C (second compound 0.316 µM, first compound 0.01 µM): 16.7% | viability, T/C [2]: 8.98% | viability, T/C (second compound 1 µM, first compound 0.0001 µM): 65.2% | viability, T/C (second compound 1 µM, first compound 0.000316 µM): 39.3% | viability, T/C (second compound 1 µM, first compound 0.001 µM): 31.4% | viability, T/C (second compound 1 µM, first compound 0.00316 µM): 19.9% | viability, T/C (second compound 1 µM, first compound 0.01 µM): 18.1% | viability, T/C [3]: 7.44% | viability, T/C (second compound 3.16 µM, first compound 0.0001 µM): 63.6% | viability, T/C (second compound 3.16 µM, first compound 0.000316 µM): 46.9% | viability, T/C (second compound 3.16 µM, first compound 0.001 µM): 33.5% | viability, T/C (second compound 3.16 µM, first compound 0.00316 µM): 21.8% | viability, T/C (second compound 3.16 µM, first compound 0.01 µM): 16.8% | viability, T/C [4]: 5.44% | viability, T/C (second compound 10 µM, first compound 0.0001 µM): 33% | viability, T/C (second compound 10 µM, first compound 0.000316 µM): 37.1% | viability, T/C (second compound 10 µM, first compound 0.001 µM): 26.8% | viability, T/C (second compound 10 µM, first compound 0.00316 µM): 11.3% | viability, T/C (second compound 10 µM, first compound 0.01 µM): 3.5% | viability, T/C [5]: 1.26%

COC(=O)c1ccc2c(C(=Nc3ccc(N(C)C(=O)CN4CCN(C)CC4)cc3)c3ccccc3)c(O)[nH]c2c1 + COc1cc2nc(C)nc(NC(C)c3cc(N)cc(C(F)(F)F)c3)c2cc1OC1CCOC1
pIC50 (second compound 0.1 µM): 5.70 | pIC50 (second compound 0.316 µM): 5.57 | pIC50 (second compound 1 µM): 5.74 | pIC50 (second compound 3.16 µM): 5.75 | pIC50 (second compound 10 µM): > 7.50 | viability, T/C [1]: 113% | viability, T/C [6]: 118% | viability, T/C [7]: 118% | viability, T/C [8]: 138% | viability, T/C [9]: 3.03% | viability, T/C [10]: 0.16% | viability, T/C [2]: 96.5% | viability, T/C [11]: 105% | viability, T/C [12]: 100% | viability, T/C [13]: 102% | viability, T/C [14]: 42.1% | viability, T/C [15]: 0.17% | viability, T/C [3]: 96.8% | viability, T/C [16]: 90.3% | viability, T/C [17]: 108% | viability, T/C [18]: 102% | viability, T/C [19]: 6.39% | viability, T/C [20]: 0.16% | viability, T/C [4]: 111% | viability, T/C [21]: 94.7% | viability, T/C [22]: 112% | viability, T/C [23]: 99.6% | viability, T/C [24]: 0.72% | viability, T/C [25]: 0.58% | viability, T/C [5]: 17.9% | viability, T/C [26]: 15.5% | viability, T/C [27]: 2.96% | viability, T/C [28]: 0.51% | viability, T/C [29]: 0.17% | viability, T/C [30]: 0.22%

COc1cc(Nc2ncc3c(n2)-c2ccc(Cl)cc2C(c2c(F)cccc2OC)=NC3)ccc1C(=O)O + COc1cc2nc(C)nc(NC(C)c3cc(N)cc(C(F)(F)F)c3)c2cc1OC1CCOC1
pIC50 (second compound 0.1 µM): > 7.50 | pIC50 (second compound 0.316 µM): > 7.50 | pIC50 (second compound 1 µM): > 7.50 | pIC50 (second compound 3.16 µM): > 7.50 | pIC50 (second compound 10 µM): > 7.50 | viability, T/C [1]: 40.5% | viability, T/C [6]: 35.1% | viability, T/C [7]: 41.5% | viability, T/C [8]: 37.5% | viability, T/C [9]: 37.2% | viability, T/C [10]: 33.2% | viability, T/C [2]: 45.3% | viability, T/C [11]: 38.4% | viability, T/C [12]: 40.7% | viability, T/C [13]: 36.7% | viability, T/C [14]: 37.3% | viability, T/C [15]: 34.6% | viability, T/C [3]: 46.9% | viability, T/C [16]: 35.4% | viability, T/C [17]: 39.4% | viability, T/C [18]: 40.5% | viability, T/C [19]: 33% | viability, T/C [20]: 34.2% | viability, T/C [4]: 38.5% | viability, T/C [21]: 32% | viability, T/C [22]: 32.5% | viability, T/C [23]: 33.7% | viability, T/C [24]: 30.1% | viability, T/C [25]: 31.6% | viability, T/C [5]: 11.7% | viability, T/C [26]: 2.43% | viability, T/C [27]: 2.29% | viability, T/C [28]: 2.71% | viability, T/C [29]: 10.7% | viability, T/C [30]: 2.59%

O=C(c1cc(Cc2n[nH]c(=O)c3ccccc23)ccc1F)N1CCN(C(=O)C2CC2)CC1 + COc1cc2nc(C)nc(NC(C)c3cc(N)cc(C(F)(F)F)c3)c2cc1OC1CCOC1
pIC50 (second compound 0.1 µM): < 5.00 | pIC50 (second compound 0.316 µM): < 5.00 | pIC50 (second compound 1 µM): < 5.00 | pIC50 (second compound 3.16 µM): < 5.00 | pIC50 (second compound 10 µM): < 5.00 | viability, T/C [1]: 92.5% | viability, T/C [6]: 71.2% | viability, T/C [7]: 83.6% | viability, T/C [8]: 88.9% | viability, T/C [9]: 75.5% | viability, T/C [10]: 74.5% | viability, T/C [2]: 81.2% | viability, T/C [11]: 66.3% | viability, T/C [12]: 70.2% | viability, T/C [13]: 73% | viability, T/C [14]: 79.6% | viability, T/C [15]: 58.2% | viability, T/C [3]: 107% | viability, T/C [16]: 102% | viability, T/C [17]: 94.6% | viability, T/C [18]: 96.3% | viability, T/C [19]: 92.3% | viability, T/C [20]: 64.6% | viability, T/C [4]: 108% | viability, T/C [21]: 96.6% | viability, T/C [22]: 97.5% | viability, T/C [23]: 83.9% | viability, T/C [24]: 81.1% | viability, T/C [25]: 51.5% | viability, T/C [5]: 107% | viability, T/C [26]: 119% | viability, T/C [27]: 112% | viability, T/C [28]: 96.8% | viability, T/C [29]: 86.8% | viability, T/C [30]: 65.2%
